Data from patent US20250108036A1, “COMPOSITIONS FOR REMOVING SENESCENT CELLS AND USES THEREOF” (LIFECEUTIX CO., LTD., priority 2021, published 2025).

Columns and labels:
[1] = chlorhexidine gluconate-induced peritoneal fibrosis in mice (Example 6-2); assay type: in vivo, C57BL6J mice; conditions: 0.1% CHG 10 ml/kg i.p. every 2 days for 20 days; LX-112 70 mg/kg i.p. daily from day 9
Protocol: After 8-week-old male C57BL6J mice (purchased from KRIBB Laboratory Animal Resource Center) were adapted to the experimental environment for 1 week, the mice were randomized into an experimental group and a control group. To induce peritoneal fibrosis, 0.1% chlorhexidine gluconate (CHG, purchased from Sigma) was dissolved in 15% ethanol phosphate buffer solution and administered intraperitoneally at a concentration of 10 ml/kg every 2 days for 20 days. From day 9, LX-112 was mixed with 0.5% CMC-Na solution (purchased from Sigma) and administered intraperitoneally at a concentration of 70 mg/kg every day. The control group (−) was administered only the solution in the same volume. On the 20th day, paraffin sections of peritoneal tissue prepared by fixation in 4% paraformaldehyde solution were stained with H/E (Hematoxylin/Eosin) and trichrome, and the thickness of the peritoneal mesothelial cell layer was measured under a light microscope.

Splenocyte = conditions: cited from earlier work
senescent foreskin cells = assay: survival of senescent foreskin cells treated with medium supernatant (secreted fluid) of compound-killed cells (Example 13, Tables 68, 69); assay type: cell-based, human; conditions: culture medium supernatant from dying senescent cells treated with compound at 30 μM, 90 μM or 270 μM; senescent foreskin cells
Protocol: (§1) After 3 days, cell viability was measured using CellTiter-Glo Luminescent Cell Viability Assay (Promega) or light microscopy.
During this additional culture, by checking with an optical microscope, etc., the medium supernatants containing secreted fluid from normally proliferating and senescent cells in which cell death was induced were obtained. The obtained medium supernatant was replaced with the medium of normally proliferating and senescent cells, respectively, and cell survival rate was measured after 3 days.

A549 = assay: CellTiter-Glo cell viability of senescent A549 cancer cells (Example 12, Table 67); assay type: cell-based, human; conditions: doxorubicin-induced senescent A549 cancer cells, CellTiter-Glo
[2] = open field test in naturally aged mice treated with test compounds (Example 15, Table 71); assay type: in vivo, C57BL6J mice; conditions: naturally aged mice treated with test compound
HMGN1 [3] = assay: HMGN1 ELISA in culture medium of foreskin cells (Examples 10, 11; Tables 62, 63, 64); assay type: cell-based, human; conditions: 30 μM test compound, doxorubicin-treated foreskin cells, DMSO = 100
HMGN1 [4] = assay: HMGN1 ELISA in culture medium of A549 cancer cells (Example 12, Table 66); assay type: cell-based, human; conditions: doxorubicin-induced senescent A549 cells, test compound 30 μM, ELISA, DMSO = 100
p16, MMP3, IL6 [5] = assay: p16, MMP3, IL6 mRNA qRT-PCR in groin fat of obese mice given senescent cells killed by test compounds (Example 16, Table 72); assay type: in vivo, C57BL6J mice; conditions: obese mice administered senescent cells whose death was induced by the test compound
Description: To obtain preadipocytes, groin fat tissue was collected from an 8-week-old female C57BL6J mouse (purchased from KRIBB Laboratory Animal Resource Center). The fat tissue was cut into small pieces and treated with collagenase to decompose the fat tissue, then centrifuged to collect the stromal vascular fraction (SVF) containing preadipocytes. It was washed with a washing medium (HBSS, purchased from GenDEPOT; 3.5% Albumin Fraction V, purchased from GenDEPOT; 100 U/ml Penicillin & Streptomycin, purchased from Invitrogen), mixed again, and extracted by filtering through a 100 μm nylon mesh. The isolated preadipocytes were cultured in the designated medium (DMEM, purchased from GenDEPOT; 20% FBS, purchased from GenDEPOT; 100 U/ml Penicillin & Streptomycin, purchased from Invitrogen). In the same manner as Example 1, cells were treated with doxorubicin at a concentration of 250 nM for 24 hours and cultured for an additional 21 days to induce cell senescence. Cells were treated with doxorubicin at a concentration of 250 nM for 24 hours and cultured for an additional 21 days to induce cell senescence. By treating the test compounds in the same manner as in Example 13, it was confirmed using an optical microscope that the death of most senescent cells was induced. The killed preadipocytes were washed using PBS (purchased from Welgene) and then mixed with PBS at a concentration of 5×10^5 cells/200 μl. It was administered subcutaneously to 8-week-old female C57BL6J mice (purchased from KRIBB Laboratory Animal Resource Center). At 7 and 10 days after administration of the killed senescent cells, 2 million senescent preadipocytes were mixed in 200 μl of PBS and administered into the abdominal cavity of mice. After administration of killed senescent cells, obesity was induced in mice with a high-fat diet (DIO) for 8 weeks in the same manner as in Example 9-1. Afterwards, the mouse was sacrificed in the same manner as in Example 7-2, total RNA was extracted from the groin fat tissue, and qRT-PCR was performed and analyzed using the synthesized cDNA. […] The mRNA amount of p16, MMP3, and IL6 without administration of senescent cells whose death was induced by the test compounds was calculated as 100%, and the amount of p16, MMP3, and IL6 after administration of the senescent cells whose death was induced by the test compounds was compared with them. Furthermore, an open field test was performed to analyze aging-related frailty in mice using the same method as Example 7-7. […] The amount of activity evaluation without administration of senescent cells whose death was induced by the test compounds was calculated as 100% and compared it with the amount of activity evaluation after administration of senescent cells whose death was induced by the test compounds. […]

p16, MMP3, IL6 [6] = assay: p16, MMP3, IL6 mRNA qRT-PCR in liver of naturally aged mice treated with test compounds (Example 15, Table 71); assay type: in vivo, C57BL6J mice; conditions: liver tissue of naturally aged mice treated with test compound
[7] = open field test in obese mice given senescent cells killed by test compounds (Example 16, Table 72); assay type: in vivo, C57BL6J mice; conditions: obese mice administered senescent cells whose death was induced by the test compound
Description: To obtain preadipocytes, groin fat tissue was collected from an 8-week-old female C57BL6J mouse (purchased from KRIBB Laboratory Animal Resource Center). The fat tissue was cut into small pieces and treated with collagenase to decompose the fat tissue, then centrifuged to collect the stromal vascular fraction (SVF) containing preadipocytes. It was washed with a washing medium (HBSS, purchased from GenDEPOT; 3.5% Albumin Fraction V, purchased from GenDEPOT; 100 U/ml Penicillin & Streptomycin, purchased from Invitrogen), mixed again, and extracted by filtering through a 100 μm nylon mesh. The isolated preadipocytes were cultured in the designated medium (DMEM, purchased from GenDEPOT; 20% FBS, purchased from GenDEPOT; 100 U/ml Penicillin & Streptomycin, purchased from Invitrogen). In the same manner as Example 1, cells were treated with doxorubicin at a concentration of 250 nM for 24 hours and cultured for an additional 21 days to induce cell senescence. Cells were treated with doxorubicin at a concentration of 250 nM for 24 hours and cultured for an additional 21 days to induce cell senescence. By treating the test compounds in the same manner as in Example 13, it was confirmed using an optical microscope that the death of most senescent cells was induced. The killed preadipocytes were washed using PBS (purchased from Welgene) and then mixed with PBS at a concentration of 5×10^5 cells/200 μl. It was administered subcutaneously to 8-week-old female C57BL6J mice (purchased from KRIBB Laboratory Animal Resource Center). At 7 and 10 days after administration of the killed senescent cells, 2 million senescent preadipocytes were mixed in 200 μl of PBS and administered into the abdominal cavity of mice. After administration of killed senescent cells, obesity was induced in mice with a high-fat diet (DIO) for 8 weeks in the same manner as in Example 9-1. Afterwards, the mouse was sacrificed in the same manner as in Example 7-2, total RNA was extracted from the groin fat tissue, and qRT-PCR was performed and analyzed using the synthesized cDNA. […] The mRNA amount of p16, MMP3, and IL6 without administration of senescent cells whose death was induced by the test compounds was calculated as 100%, and the amount of p16, MMP3, and IL6 after administration of the senescent cells whose death was induced by the test compounds was compared with them. Furthermore, an open field test was performed to analyze aging-related frailty in mice using the same method as Example 7-7. […] The amount of activity evaluation without administration of senescent cells whose death was induced by the test compounds was calculated as 100% and compared it with the amount of activity evaluation after administration of senescent cells whose death was induced by the test compounds.

[8] = tested on: foreskin cells in which senescence was induced by doxorubicin; assay: CellTiter-Glo cell viability of doxorubicin-induced senescent foreskin cells (Examples 1-2, 10, 11, 13; Tables 4, 63, 65); assay type: cell-based, human; conditions: doxorubicin-induced senescent foreskin cells, CellTiter-Glo, 0 μM = 100
Protocol: as §1

Compound | Submesothelial Thickness (μm) [1] | Splenocyte proliferation recovery (Splenocyte) | Survival (senescent foreskin cells) | Survival (%) (A549; 1.1 μM test compound) | Open Field Test Time in Center (%) [2] | HMGN1 (HMGN1 [3]) | HMGN1 (amount of HMGN1 secreted in the cell culture) (HMGN1 [4]) | IL6 mRNA (%) (p16, MMP3, IL6 [5]) | MMP3 mRNA (%) (p16, MMP3, IL6 [5]) | p16 mRNA (%) (p16, MMP3, IL6 [5]) | IL6 mRNA (%) (p16, MMP3, IL6 [6]) | MMP3 mRNA (%) (p16, MMP3, IL6 [6]) | p16 mRNA (%) (p16, MMP3, IL6 [6]) | Open Field Test Time in Center (%) [7] | Survival (%) ([8]; 1.1 μM test compound) | Survival (%) ([8]; […] test compound) | Survival (%) (A549; 10 μM test compound) | Survival (%) ([8]; 10 μM test compound)
N=C(NCCCCCCNC(=N)NC(=N)Nc1ccc(Cl)cc1)NC(=N)Nc1ccc(Cl)cc1.O=C(O)[C@H](O)[C@@H](O)[C@H](O)[C@H](O)CO.O=C(O)[C@H](O)[C@@H](O)[C@H](O)[C@H](O)CO [CHG, chlorhexidine gluconate, reference compound] | 69.1 (±6.4) μm | – | – | – | – | – | – | – | – | – | – | – | – | – | – | – | – | –
CC(O)[C@@H]1NC(=O)COCCOCCNC(=O)[C@H](C(C)O)NC(=O)N[C@@H](C(C)O)C(=O)NNC1=O (stereo partly shown) [Example 80] | – | Splenocyte proliferation recovery 91% | – | – | – | – | – | – | – | – | – | – | – | – | – | – | – | –
CC(=O)OC[C@H]1O[C@@H]([S-])[C@H](OC(C)=O)[C@@H](OC(C)=O)[C@@H]1OC(C)=O.CCP(CC)CC.[Au+] [LX-201, Auranofin, reference compound] | – | – | 62.9 | 72.5 | 226.4 (±27.6) % | 291 | 337 | 76.8 (±6.4) % | 67.1 (±9.2) % | 79.5 (±7.6) % | 65.7 (±5.1) % | 77 (±9.6) % | 85 (±8.2) % | 176 (±22.6) % | 98.2 | 3 | – | –
S=C(N/N=C1\CCCc2cccnc21)N1CCN(c2ccccn2)CC1 [LX-801] | – | – | 52.7 | 78.1 | 241.8 (±17.9) % | 265 | 329 | 79.4 (±4.6) % | 81.7 (±2.9) % | 79.8 (±3.4) % | 71.1 (±1.8) % | 76.5 (±4.2) % | 69.4 (±6.9) % | 216.8 (±12.8) % | 50.5 | 48.9 | 12.7 | 28.2
Decyltriphenylphosphonium [LX-1202] | – | – | 55.1 | 53.4 | 231 (±23) % | 289 | 301 | 62.8 (±8.9) % | 70.7 (±7.5) % | 67.2 (±12.1) % | 74.1 (±6.1) % | 40.2 (±22.7) % | 74.2 (±10.4) % | 175.9 (±21.5) % | 22.7 | 3.1 | – | –
